Test system: 777334-354-R2-J4-PDC tumor spheroids with HUVEC/MSC, viability
Assay: Anticancer human tumor 777334-354-R2-J4-PDC patient-derived pancreatic adenocarcinoma cell line growth inhibition [GQUAD]
Details: for IC50: curve of first compound; for viability, T/C: stronger effect = lower value; active means viability on the fitted dose curve at most 10% of control; inactive means the rest
How it was run: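 Viability of tumor cells grown as complex spheroids with endothelial and stromal cells, exposed to drug combinations. Top concentration at or near clinical Cmax (else 10 microM), diluted in half-log increments.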

[1] = second compound 0.0316 µM, first compound 0.0316 µM
[2] = second compound 0.0316 µM, first compound 0.1 µM
[3] = second compound 0.0316 µM, first compound 0.316 µM
[4] = second compound 0.0316 µM, first compound 1 µM
[5] = second compound 0.0316 µM, first compound 3.16 µM
[6] = second compound 0.0316 µM, first compound 10 µM
[7] = second compound 0.1 µM, first compound 0.0316 µM
[8] = second compound 0.1 µM, first compound 0.1 µM
[9] = second compound 0.1 µM, first compound 0.316 µM
[10] = second compound 0.1 µM, first compound 1 µM
[11] = second compound 0.1 µM, first compound 3.16 µM
[12] = second compound 0.1 µM, first compound 10 µM
[13] = second compound 0.316 µM, first compound 0.0316 µM
[14] = second compound 0.316 µM, first compound 0.1 µM
[15] = second compound 0.316 µM, first compound 0.316 µM
[16] = second compound 0.316 µM, first compound 1 µM
[17] = second compound 0.316 µM, first compound 3.16 µM
[18] = second compound 0.316 µM, first compound 10 µM
[19] = second compound 1 µM, first compound 0.0316 µM
[20] = second compound 1 µM, first compound 0.1 µM
[21] = second compound 1 µM, first compound 0.316 µM
[22] = second compound 1 µM, first compound 1 µM
[23] = second compound 1 µM, first compound 3.16 µM
[24] = second compound 1 µM, first compound 10 µM
[25] = second compound 3.16 µM, first compound 0.0316 µM
[26] = second compound 3.16 µM, first compound 0.1 µM
[27] = second compound 3.16 µM, first compound 0.316 µM
[28] = second compound 3.16 µM, first compound 1 µM
[29] = second compound 3.16 µM, first compound 3.16 µM
[30] = second compound 3.16 µM, first compound 10 µM
[31] = second compound 10 µM, first compound 0.0316 µM
[32] = second compound 10 µM, first compound 0.1 µM
[33] = second compound 10 µM, first compound 0.316 µM
[34] = second compound 10 µM, first compound 1 µM
[35] = second compound 10 µM, first compound 3.16 µM
[36] = second compound 10 µM, first compound 10 µM
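Further: spheroids exposed to compounds for 7 days before readout.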

CC1COCCN1c1cc(C2(O)CC3CCC(C2)O3)c2cnn(-c3ccn[nH]3)c2n1 (stereo not drawn) + Cc1[nH]c2ccc(F)cc2c1-c1nc2c3cccnc3c3ncccc3c2[nH]1
302 nM: IC50 (second compound 0.0316 µM)
inactive: viability, T/C [1] 93.8% | viability, T/C [2] 59.3% | viability, T/C [3] 52.8% | viability, T/C [4] 38.3% | viability, T/C [5] 33.2% | viability, T/C [6] 19% | viability, T/C [7] 98.7% | viability, T/C [8] 66.1% | viability, T/C [9] 56% | viability, T/C [10] 36.5% | viability, T/C [11] 31.9% | viability, T/C [12] 23% | viability, T/C [13] 84.6% | viability, T/C [14] 67.1% | viability, T/C [15] 50.6% | viability, T/C [16] 39.8% | viability, T/C [17] 31.4% | viability, T/C [18] 20.8% | viability, T/C [19] 66.8% | viability, T/C [20] 56% | viability, T/C [21] 44.9% | viability, T/C [22] 31.6% | viability, T/C [23] 21.3% | viability, T/C [24] 16.9% | viability, T/C [25] 25.2% | viability, T/C [26] 18.8% | viability, T/C [27] 11.6% | viability, T/C [31] 21.8% | viability, T/C [32] 16.9% | viability, T/C [33] 12.8%
364 nM: IC50 (second compound 0.1 µM)
384 nM: IC50 (second compound 0.316 µM)
active: viability, T/C [28] 8.38% | viability, T/C [29] 6.83% | viability, T/C [30] 4.02% | viability, T/C [34] 7.12% | viability, T/C [35] 7.7% | viability, T/C [36] 4.01%
186 nM: IC50 (second compound 1 µM)
< 31.6 nM: IC50 (second compound 3.16 µM) | IC50 (second compound 10 µM)

CC1COCCN1c1cc(C2(S(C)(=N)=O)CC2)nc(-c2ccnc3[nH]ccc23)n1 (stereo not drawn) + Cc1[nH]c2ccc(F)cc2c1-c1nc2c3cccnc3c3ncccc3c2[nH]1
> 10000 nM: IC50 (second compound 0.0316 µM) | IC50 (second compound 0.1 µM) | IC50 (second compound 0.316 µM)
7070 nM: IC50 (second compound 1 µM)
< 31.6 nM: IC50 (second compound 3.16 µM) | IC50 (second compound 10 µM)
inactive: viability, T/C [1] 109% | viability, T/C [2] 98.9% | viability, T/C [3] 108% | viability, T/C [4] 100% | viability, T/C [5] 87.7% | viability, T/C [6] 62.2% | viability, T/C [7] 113% | viability, T/C [8] 92.7% | viability, T/C [9] 118% | viability, T/C [10] 85.8% | viability, T/C [11] 94.5% | viability, T/C [12] 74.8% | viability, T/C [13] 94.8% | viability, T/C [14] 97.7% | viability, T/C [15] 88.3% | viability, T/C [16] 96.2% | viability, T/C [17] 89.9% | viability, T/C [18] 56% | viability, T/C [19] 88.7% | viability, T/C [20] 93.8% | viability, T/C [21] 87.1% | viability, T/C [22] 75.5% | viability, T/C [23] 67.9% | viability, T/C [24] 42.7% | viability, T/C [25] 41.8% | viability, T/C [26] 27.1% | viability, T/C [27] 35% | viability, T/C [28] 22.8% | viability, T/C [29] 25.8% | viability, T/C [30] 12% | viability, T/C [31] 36% | viability, T/C [32] 29.2% | viability, T/C [33] 29.6% | viability, T/C [34] 18.9% | viability, T/C [35] 20.7% | viability, T/C [36] 11.1%

COc1ccc([C@@H](O)c2cc(-c3ncnc4cc(N5CCOCC5)ccc34)c(F)cc2Cl)nn1 + Cc1[nH]c2ccc(F)cc2c1-c1nc2c3cccnc3c3ncccc3c2[nH]1
< 31.6 nM: IC50 (second compound 3.16 µM) | IC50 (second compound 10 µM)
3440 nM: IC50 (second compound 0.316 µM)
inactive: viability, T/C [1] 102% | viability, T/C [2] 91% | viability, T/C [3] 95% | viability, T/C [4] 76% | viability, T/C [5] 54.5% | viability, T/C [6] 30.3% | viability, T/C [7] 110% | viability, T/C [8] 98.8% | viability, T/C [9] 93% | viability, T/C [10] 71% | viability, T/C [11] 55.4% | viability, T/C [12] 30.5% | viability, T/C [13] 92.8% | viability, T/C [14] 92.9% | viability, T/C [15] 88.2% | viability, T/C [16] 80.3% | viability, T/C [17] 51.4% | viability, T/C [18] 28.9% | viability, T/C [19] 79.9% | viability, T/C [20] 89.9% | viability, T/C [21] 76.8% | viability, T/C [22] 61.8% | viability, T/C [23] 40.6% | viability, T/C [24] 22.2% | viability, T/C [25] 46.1% | viability, T/C [26] 43.4% | viability, T/C [27] 36.7% | viability, T/C [28] 17.7% | viability, T/C [29] 13.6% | viability, T/C [30] 9.99% | viability, T/C [31] 35.4% | viability, T/C [32] 29.1% | viability, T/C [33] 27.8% | viability, T/C [34] 15.2% | viability, T/C [35] 13% | viability, T/C [36] 12.6%
3890 nM: IC50 (second compound 0.0316 µM)
1890 nM: IC50 (second compound 1 µM)
3880 nM: IC50 (second compound 0.1 µM)

O=C(c1cc(Cc2n[nH]c(=O)c3ccccc23)ccc1F)N1CCN(C(=O)C2CC2)CC1 + Cc1[nH]c2ccc(F)cc2c1-c1nc2c3cccnc3c3ncccc3c2[nH]1
inactive: viability, T/C [1] 95.4% | viability, T/C [2] 95.8% | viability, T/C [3] 102% | viability, T/C [4] 98.7% | viability, T/C [5] 93.6% | viability, T/C [6] 83.1% | viability, T/C [7] 98.6% | viability, T/C [8] 98.9% | viability, T/C [9] 99.5% | viability, T/C [10] 92.5% | viability, T/C [11] 103% | viability, T/C [12] 78.7% | viability, T/C [13] 99.2% | viability, T/C [14] 98.7% | viability, T/C [15] 95.1% | viability, T/C [16] 103% | viability, T/C [17] 106% | viability, T/C [18] 76% | viability, T/C [19] 75.5% | viability, T/C [20] 89.7% | viability, T/C [21] 91.6% | viability, T/C [22] 82.9% | viability, T/C [23] 89.2% | viability, T/C [24] 82.5% | viability, T/C [25] 37.8% | viability, T/C [26] 39.2% | viability, T/C [27] 36.4% | viability, T/C [28] 38.2% | viability, T/C [29] 43% | viability, T/C [30] 32.8% | viability, T/C [31] 24.9% | viability, T/C [32] 35.9% | viability, T/C [33] 39% | viability, T/C [34] 33.7% | viability, T/C [35] 36.5% | viability, T/C [36] 33%
> 10000 nM: IC50 (second compound 0.0316 µM) | IC50 (second compound 0.1 µM) | IC50 (second compound 0.316 µM) | IC50 (second compound 1 µM)
< 31.6 nM: IC50 (second compound 3.16 µM) | IC50 (second compound 10 µM)

Source: PubChem BioAssay AID2060499 (Molecular Pharmacology Branch, DTP, NCI, 2025)
